Literature values as cited in US20050244491A1, “Fast disintegrating meloxicam tablet” (Boehringer Ingelheim International GmbH, priority 2001, published 2005).

Conditions: in acidic or neutral medium

solubility: low
SMILES: Cc1cnc(NC(=O)C2=C(O)c3ccccc3S(=O)(=O)N2C)s1 [Meloxicam, 2H-1,2-benzothiazine-3-carboxamide, 4-hydroxy-2-methyl-N-(5-methyl-2-thiazolyl)-1,1-dioxide]
